{"source": "patent US20250144127A1", "about": "“LONG-CHAIN COMPOUND AND USE THEREOF” (Burgeon Therapeutics Co., Ltd., priority 2021, published 2025)", "key": {"[1]": {"molecular_target": "T1, Human-derived ACLY protein (Homo sapiens, UniProt P53396)", "T1 construct": "purchased Beijing Yiqiao Shenzhou Technology Co., Ltd 11769-H07B", "T1 sequence (P53396 1-1101)": "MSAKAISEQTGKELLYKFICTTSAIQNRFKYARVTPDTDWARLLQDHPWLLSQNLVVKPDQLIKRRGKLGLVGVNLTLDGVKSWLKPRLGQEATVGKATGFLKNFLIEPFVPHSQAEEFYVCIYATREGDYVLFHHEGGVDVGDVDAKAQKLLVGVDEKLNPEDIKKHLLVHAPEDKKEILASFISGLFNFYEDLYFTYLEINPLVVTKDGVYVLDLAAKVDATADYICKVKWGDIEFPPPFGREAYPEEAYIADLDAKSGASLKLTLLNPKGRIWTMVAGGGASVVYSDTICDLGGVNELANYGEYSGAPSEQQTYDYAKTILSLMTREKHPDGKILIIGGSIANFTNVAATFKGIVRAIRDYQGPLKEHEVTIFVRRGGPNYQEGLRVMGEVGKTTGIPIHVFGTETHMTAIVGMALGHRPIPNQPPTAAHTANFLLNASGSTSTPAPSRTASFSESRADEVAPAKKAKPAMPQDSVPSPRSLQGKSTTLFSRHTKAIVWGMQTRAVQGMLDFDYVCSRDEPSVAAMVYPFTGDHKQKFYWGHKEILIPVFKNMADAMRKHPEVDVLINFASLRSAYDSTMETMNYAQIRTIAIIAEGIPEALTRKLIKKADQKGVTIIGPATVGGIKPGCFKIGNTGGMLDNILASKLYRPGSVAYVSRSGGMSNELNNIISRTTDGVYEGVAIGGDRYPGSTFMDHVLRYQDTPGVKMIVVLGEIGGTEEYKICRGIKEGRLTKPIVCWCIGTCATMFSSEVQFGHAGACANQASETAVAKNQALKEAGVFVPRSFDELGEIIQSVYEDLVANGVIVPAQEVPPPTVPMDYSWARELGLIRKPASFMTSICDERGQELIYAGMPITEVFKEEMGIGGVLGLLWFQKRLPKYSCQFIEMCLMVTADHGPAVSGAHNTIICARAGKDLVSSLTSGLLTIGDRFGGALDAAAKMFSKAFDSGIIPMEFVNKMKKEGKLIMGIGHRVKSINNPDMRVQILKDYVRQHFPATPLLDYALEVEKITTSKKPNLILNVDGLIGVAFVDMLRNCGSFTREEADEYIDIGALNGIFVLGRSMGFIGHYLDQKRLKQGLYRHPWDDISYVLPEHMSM", "test": "ACLY citrate cleavage enzyme inhibition, ADP-Glo assay", "type": "biochemical", "details": "25 nM enzyme, 30 min, 37° C., read-out: IC50 for inhibition of ACLY enzyme activity (mean ± SD)", "excerpt": "The ACLY-catalyzed citric acid cleavage process requires the consumption of one molecule of ATP to activate citric acid. Based on this reaction principle, the inventors utilized an ADP-Glo assay kit to detect the amount of ATP converted to ADP in response to the catalytic activity of ACLY. After the establishment of the activity measurement system and optimization of the reaction conditions, the inventors evaluated the ACLY inhibitory activity of the obtained novel ACLY small molecule inhibitors.\nActivity test protocol: Human-derived ACLY protein was purchased from Beijing Yiqiao Shenzhou Technology Co., Ltd (Item No. 11769-H07B), and ADP-Glo assay kit was purchased from Promega (Item No. V9102). The total volume of the reaction was 5 μL, which consisted of a mixture of three parts: 1 μL of 2% DMSO, 2 μL of the substrate mixture, and 2 μL of the enzyme (final concentration of 25 nM). Then 1 μL of different concentrations of compounds were added for incubation. Reaction conditions: 30 min, 37° C. Then 2.5 μL of ADP Reagent from ADP-Glo Kit was used, mixed well and reacted for 2 h. 5 μL of ADP Detection was added, centrifuged and mixed well. Then the full wavelength value was read from Envision multifunctional plate reader.\nResults: Firstly, the cumulative amount of fluorescence intensity of the enzyme in 30 min reaction time (RFU/min) was calculated to represent the initial velocity of the enzyme, and then the ratio of the enzyme's velocity with the addition of compounds (vsample) to the enzyme's velocity without the addition of compounds (vDMSO) was calculated to be the percentage of activity for each concentration group of the samples (Activity rate %), with the formula: % Activity=(V(sample)/(v(DMSO))×100%. The logarithmic value of the concentration was plotted against the activity percentage, and then a non-linear regression was used to calculate the fitted curve. The software GraphPad Prism 8.0 (formula log (inhibitor) vs. response—Variable slope) was used to fit the curve and calculate the IC50 value, and the results are shown in the table below."}, "golden hamster": {"system": "golden hamster", "test": "High-fat and high-cholesterol diet-induced hyperlipidemia model of golden hamster", "type": "in vivo", "details": "1 time/day, 7 days, vs control group", "excerpt": "Dosing regimen: The hyperlipidemia model of golden hamster is recognized as one of the ideal animal models for studying hyperlipidemia drug therapy (pharmacodynamic evaluation). In order to preliminarily investigate the existence of potential regulatory effects of the candidate compounds on hepatic lipid metabolism homeostasis, the high-fat and high-cholesterol diet-induced hyperlipidemia model of golden hamster was utilized for preliminary pharmacodynamic evaluation. The specific protocol was as follows. 56 golden hamsters, males, were modeled on high-fat and high-cholesterol diet (Research diet, item number C11953) for two weeks, and 8 golden hamsters were reserved as blank control group. Subsequently, group administration (7 groups, n=8) was performed, i.e., model control group, positive control ETC-1002 30 mg/kg group, compound A3 10 mg/kg and 30 mg/kg group, compound A4 10 mg/kg and 30 mg/kg group, and blank control group. The compounds in each group were configured with saline (0.9% NaCl) and administered at a frequency of 1 time/day for a 7-day dosing cycle.\nIndicator test: The body weight and food intake of golden hamsters were closely monitored during the administration period. After 7 days of administration, blood was collected from the orbital region of each group (starved overnight for about 16 hours), centrifuged to obtain serum, and stored in cryopreservation, and then total cholesterol and LDL cholesterol were detected in the serum. The relative amount of the relevant indexes was calculated as follows: Relative amount (100%)=the amount in the administered group/the amount in the model control group*100%."}}}
{"smiles": "CC(C)(CCCC/C=C/CCCCCC(C)(C)C(=O)O)C(=O)O", "note": "[Compound A3]", "values": [{"measurement": "IC50", "setting": "[1]", "value": "85.4 ± 9.8", "unit": "µM"}, {"measurement": "serum LDL cholesterol", "setting": "golden hamster; 10 mg/kg", "value": "significantly reduce"}, {"measurement": "serum total cholesterol", "setting": "golden hamster; 10 mg/kg", "value": "significantly reduce"}, {"measurement": "serum LDL cholesterol", "setting": "golden hamster; 30 mg/kg", "value": "significantly reduce"}, {"measurement": "serum total cholesterol", "setting": "golden hamster; 30 mg/kg", "value": "significantly reduce"}]}
